This is an account of results in patent EP0870197B2, “USE OF NUCLEAR MAGNETIC RESONANCE TO DESIGN LIGANDS TO TARGET BIOMOLECULES” (priority 1995, dated 1997).

One series is described as follows: water solubility. It is filed as physicochemical.
Series [1] deals with T1, catalytic domain of stromelysin (Homo sapiens, UniProt P08254).
T1 construct: expression construct coding for amino acid residues 81-256 plus an initiating methionine; initiating methionine (N); made in house; host or cells: E. coli BL21(DE3)/pLysS, pET3d
Briefly: two-dimensional 15N/1H NMR correlation titration, dissociation constant. In kind it is binding. As to the method: Binding or dissociation constants are measured by following the ^15N/^1H chemical shifts of the protein as a function of ligand concentration. A known concentration ([P]o) of the target molecule is mixed with a known concentration ([L]0) of a previously identified ligand and the two-dimensional ^15N/^1H correlation spectrum was acquired. From this spectrum, observed chemical shift values (δobs) are obtained. The process is repeated for varying concentrations of the ligand to the point of saturation of the target molecule, when possible, in which case the limiting chemical shift value for saturation (δsat) is measured.
In those situations where saturation of the target molecule is achieved, the dissociation constant for the binding of a particular ligand to the target molecule is calculated using the formula: KD = (([P]0−x)([L]0−x))/(x) [formula] where [P]0 is the total molar concentration of target molecule; [L]0 is the total molar concentration of ligand; and x is the molar concentration of the bound species. The value of x is determined from the equation: x = (δobs −δfree)/(Δ) [formula] where δfree is the chemical shift of the free species; δobs is the observed chemical shift; and Δ is the difference between the limiting chemical shift value for saturation (δsat) and the chemical shift value of the target molecule free of ligand (δfree).
The dissociation constant is then determined by varying its value until a best fitto the observed data is obtained using standard curve-fitting statistical methods. In the case where δsat is not directly known, both KD and δsat are varied and subjected to the same curve-fitting procedure.
The catalytic domain of stromelysin was prepared in accordance with the procedures of Example 1. The protein solutions used in the screening assay contained the uniformly ^15N-labeled catalytic domain of stromelysin (0.3 mM), acetohydroxamic acid (500 mM), CaCl2 (20 mM), and sodium azide (0.5%) in a H2O/D2O (9/1) TRIS buffered solution (50 mM, pH=7.0).
Two-dimensional ^15N/^1H NMR spectra were generated at 29°C on a Bruker AMX500 NMR spectrometer equipped with a triple resonance probe and Bruker sample changer. The ^15N/^1H HSQC spectra were acquired as 80 x 1024 complex points using sweep widths of 2000 Hz (^15N, t^1) and 8333 Hz (^1H, t2). A delay of 1 second between scans and 8 scans perfree induction decay(fid) were employed in the data collection. All NMR spectra were processed and analyzed on Silicon Graphics computers using in-house-written software.
A first two-dimensional ^15N/^1 H NMR correlation spectrum was acquired for the ^15N-labeled stromelysin target molecule as described above. The stromelysin target was then exposed to a database of test compounds. Stock solutions of the compounds were made at 100 mM and 1 M. In addition, a combination library was prepared that contained 8-10 compounds per sample at a concentration of 100 mM for each compound.
The NMR samples were prepared by adding 4 µl of the DMSO stock solution of the compound mixtures that contained each compound at a concentration of 100 mM to 0.4 ml H2O/D2O (9/1) buffered solution of the uniformly ^15N-labeled protein. The final concentration of each of the compounds in the NMR sample was about 1 mM.
Various biaryl compounds of structure I were tested for binding to stromelysin at differing concentrations. The ^15N/^1H spectra generated at each concentration were evaluated to quantify differences in the spectra as a function of compound concentration. A binding or dissociation constant (KD)was calculated, using standard procedures well known in the art, from those differences. The values for R1-R3 and A1-A3 in Table 1 refer to the corresponding positions in the structure I, above.
All NMR measurements were performed in the presence of 500 mM acetohydroxamic acid, except for the titration of acetohydroxamic acid itself. Dissociation constants were obtained from the dependence of the observed chemical shift changes upon added ligand. […]

Series [2] concerns the target T1, catalytic domain of stromelysin. Nature of the series: enzymatic assay, cleavage of a fluorogenic substrate. In kind it is biochemical. As to the method:
In a first study, binding constants were determined, both by the NMR method of the present invention, and by a prior art enzymatic assay. The target molecule was the catalytic domain of stromelysin prepared in accordance with the procedures of Example 1. […] The KD values so obtained were compared to an inhibition constant KI as determined in an enzymatic assay.
The enzymatic assay measured the rate of cleavage of a fluorogenic substrate by following the fluorescence increase upon peptide cleavage which causes a separation between the fluorophore and quencher. Enzymatic activity was measured using a matrix of different concentrations of acetohydroxamic acid and biaryl compounds. The assay is a modification of the method described by H. Weingarten, et al. in Anal. Biochem., 147: 437-440 (1985) employing the fluorogenic substrate properties described by E. Matayoshi, et al. in Science: 247: 954-958 (1990).
Eight acetohydroxamic acid concentrations were used ranging from 0.0 to 1.0 M, and six compound concentrations were used, resulting in a total of 48 points. Individual compound concentration varied due to solubility and potency.
All NMR measurements were performed in the presence of 500 mM acetohydroxamic acid, except for the titration of acetohydroxamic acid itself. Dissociation constants were obtained from the dependence of the observed chemical shift changes upon added ligand. Inhibition constants were then obtained from the inhibition data using standard procedures.

A further series deals with T2, Stromelysin (Homo sapiens, UniProt P08254).
T2 construct: expression construct coding for amino acid residues 81-256 plus an initiating methionine; initiating methionine (N); made in house; host or cells: E. coli BL21(DE3)/pLysS, pET3d
Nature of the series: inhibition of stromelysin degradation (autolysis). In kind it is biochemical. Conditions: at a concentration of 500 mM. As to the method:
Studies were performed to design new ligands that bound to the catalytic domain of stromelysin. Because stromelysin undergoes autolysis, an inhibitor was sought to block the degradation of stromelysin. That inhibitor would facilitate the screening of other potential ligands that bind to other sites on the enzyme.
A variety of hydroxamic acids of the general formula R-(CO)NHOH were screened for binding to stromelysin using the procedures set forth in Example 2.

Like-named read-outs stand apart in the source and are kept apart here.

T1 sequence (P08254 98-273): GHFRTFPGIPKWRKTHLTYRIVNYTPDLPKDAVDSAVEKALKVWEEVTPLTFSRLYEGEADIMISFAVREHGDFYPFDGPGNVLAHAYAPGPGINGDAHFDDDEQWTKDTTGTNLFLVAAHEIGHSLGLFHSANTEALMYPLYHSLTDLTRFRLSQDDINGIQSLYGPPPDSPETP
T2 sequence (P08254 98-273): as above

As usually defined, the Ki is the equilibrium dissociation constant of an inhibitor or competing ligand from its target. Lower therefore signals higher affinity. `CC(=O)NO` [Acetohydroxamic acid, acetohydroxamic acid, reference compound]: the water solubility entry in “water solubility” is “good water solubility”. Moreover, the Kd in series [1] (NMR screening of hydroxamic acids, read-out: binding affinity for stromelysin) is 17 mM; in series [1] (Table 3, titration of acetohydroxamic acid itself, read-out: NMR KD), 17 mM. In series [2], this compound gave a Ki of 21.1 mM. For the same compound, the “degradation of the enzyme” value at Stromelysin is recorded as “inhibited the degradation of the enzyme”.
